BindingDB's records for doi:10.1021/jm00348a007 (1982)
Each block holds one compound with its values, some of them ahead of it.

Columns and labels:
[1] = target: Thymidine kinase 2, mitochondrial (rat); test: Competitive inhibition against rat Mitochondrial thymidine kinase
[2] = target: Thymidine kinase 2, mitochondrial (rat); test: Non-competitive inhibition against rat mitochondrial thymidine kinase
[3] = target: Thymidine kinase 2, mitochondrial (rat); test: Noncompetitive inhibition against rat mitochondrial thymidine kinase
[4] = target: Thymidine kinase 2, mitochondrial (rat); test: Competitive inhibition against rat Mitochondrial thymidine kinase; remark: listed apart in the source

Compound: CCO[C@H]1C[C@H](n2cc(C)c(=O)[nH]c2=O)O[C@@H]1CO [1-(4-Ethoxy-5-hydroxymethyl-tetrahydro-furan-2-yl)-5-methyl-1H-pyrimidine-2,4-dione]
Ki [1]: 56 µM

Compound: C/C=C/c1cn([C@H]2C[C@H](O)[C@@H](CO)O2)c(=O)[nH]c1=O [1-(4-Hydroxy-5-hydroxymethyl-tetrahydro-furan-2-yl)-5-propenyl-1H-pyrimidine-2,4-dione(BVDU)]
Ki [2]: 510 µM

Further lines, results first:

Ki [3]: 3500 µM
Compound: Nc1nc(=O)n([C@H]2C[C@H](O)[C@@H](CO)O2)cc1I [4-Amino-1-(4-hydroxy-5-hydroxymethyl-tetrahydro-furan-2-yl)-5-iodo-1H-pyrimidin-2-one]

Ki [4]: 1300 µM
Compound: Cc1cn([C@H]2C[C@H](O)[C@@H](CO)O2)c(=O)nc1N [4-Amino-1-(4-hydroxy-5-hydroxymethyl-tetrahydro-furan-2-yl)-5-methyl-1H-pyrimidin-2-one]

Ki [2]: 8500 µM
Compound: Cc1cn(C2CC(O)C(CSCCCC(=O)O)O2)c(=O)[nH]c1=O (stereo not given) [4-[3-Hydroxy-5-(5-methyl-2,4-dioxo-3,4-dihydro-2H-pyrimidin-1-yl)-tetrahydro-furan-2-ylmethylsulfanyl]-butyric acid]
